Biological target: T1, StGE2 (Thermothelomyces thermophilus, UniProt G2QJR6)
T1 construct: gene ge2; produced in a P. pastoris strain from the OPTIBIOCAT consortium; construct not described
T1 sequence (G2QJR6 19-397): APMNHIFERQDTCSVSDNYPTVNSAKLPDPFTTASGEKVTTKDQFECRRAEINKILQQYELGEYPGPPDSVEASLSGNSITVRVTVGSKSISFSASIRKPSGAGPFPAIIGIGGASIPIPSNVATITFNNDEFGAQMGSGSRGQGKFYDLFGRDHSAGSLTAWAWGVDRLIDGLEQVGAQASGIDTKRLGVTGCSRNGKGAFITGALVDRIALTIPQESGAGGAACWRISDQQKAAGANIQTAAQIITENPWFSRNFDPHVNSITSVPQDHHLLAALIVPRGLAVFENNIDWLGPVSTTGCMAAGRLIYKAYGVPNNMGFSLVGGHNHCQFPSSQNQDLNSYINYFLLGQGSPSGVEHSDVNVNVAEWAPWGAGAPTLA
Assay: coupled spectrophotometric GlcA release (K-URONIC kit), relative activity
Type: biochemical
Conditions: 2 mM substrate, pH 6.0, 35 °C, 30 min; purification of StGE2 not described

O=C(OCc1ccccc1)[C@H]1OC(O)[C@H](O)[C@@H](O)[C@@H]1O (stereo partly shown) [BnGlcA]
coupled spectrophotometric GlcA release (K-URONIC kit), relative activity: enzyme action on BnGlcA produced the highest amount of hydrolysed glucuronic acid
